Values quoted from earlier work, collected in publication PMC12154284, “FYCO1 Peptide Analogs: Design and Characterization of Autophagy Inhibitors as Co-Adjuvants in Taxane Chemotherapy of Prostate Cancer” (International Journal of Molecular Sciences, 2025).

Target: LC3B
Conditions: eicosapeptide, ref [30]; cited from earlier work
From the text: This small protein sequence consists of four conserved residues that can be succinctly represented as a sequence of “X0–X1–X2–X3”, where X0 represents an aromatic residue (Trp/Phe/Tyr), X1 and X2 can denote any amino acids (often acidic or hydrophobic residues), and X3 signifies a large hydrophobic residue such as Leu, Val, or Ile. Consequently, the LIR domain can be considered a promising starting poi ... || To measure the dissociation constants (Kd) of the peptides on human recombinant His-tagged LC3B protein, MST experiments were carried out on a Monolith NT.115^Pico instrument (see the Materials and Methods section for details). […] The electrostatic interactions between the new peptides and LC3B’s positively charged surface—defined by the residues K49, K51, R69, and R70—correlated with low predicted ΔG* values, explaining their improved ...

Substance: RDDAV2DIITDEEαCQIQEW [Comb1]
- Kd: 120 nM
